Entries after “also recorded” stand apart in the source; their conditions may differ.
Tests used:
[1] = Clinical Study 1, Cohort 1: pharmacokinetic interaction of multiple-dose tegoprazan and amoxicillin/clarithromycin; assay type: in vivo, human; conditions: for change of AUC on administering the three formulations in combination (in words) / change of Cmax on administering the three formulations in combination (in words): tegoprazan + amoxicillin + clarithromycin in combination
Method: To evaluate pharmacokinetic interaction of multiple-dose administration of single and combination of tegoprazan and amoxicillin/clarithromycin, a clinical study was designed in accordance with a randomized, open-label, and multiple-dose design.
A total of 24 subjects who had been determined eligible to participate in the study were randomly assigned in a 1:1 ratio to each one of the two groups. Each randomly-assigned group was administered with investigational medical products as arranged during each intervention period and underwent a clinical study as designed. In consideration of the half-life of each product, a 14-day wash-out period was given between the intervention periods.
A total of 24 subjects were divided into group 1 and group 2. During the first intervention period, subjects of group 1 (12 person) were repeatedly administered with 100 mg of tegoprazan twice a day for four days and administered once a day on the fifth day on which a pharmacokinetic clinical study was conducted. During the second intervention period after a 14-day wash-out period, they were repeatedly administered with 1000 mg of amoxicillin and 500 mg of clarithromycin twice a day for four days and administered once a day on the fifth day. During the third intervention period after a 14-day wash-out period, they were repeatedly administered with 100 mg of tegoprazan, 1000 mg of amoxicillin, and 500 mg of clarithromycin twice a day for six days and administered once a day on the seventh day. Following the last dose of each intervention period, pharmacokinetic blood samples were collected for 17 times over 72 hours in the first period, 14 times over 48 hours in the second period, and 19 times over 120 hours in the third period.
Drugs were administered to subjects of group 2 (12 person) in the reverse order to the way the study was conducted on group 1 in the first and second intervention periods and in the same order in the third intervention period. Pharmacokinetic blood samples were collected in the same manner as group 1.
The average plasma concentrations of tegoprazan, clarithromycin, and amoxicillin were measured and time-based plasma concentration and time-based drug concentration patterns were observed when tegoprazan was repeatedly administered alone, amoxicillin/clarithromycin were repeatedly administered and tegoprazan, amoxicillin, and clarithromycin were repeatedly administered in combination.
Pharmacokinetics of tegoprazan, amoxicillin, and clarithromycin were evaluated. Descriptive statistics of pharmacokinetic evaluation parameters were presented. Point estimates for geometric mean ratio between each group and 90% confidence interval were calculated from the log-converted primary pharmacokinetic evaluation parameters by using a linear mixed effect model.

[2] = Clinical Study 1, Cohort 2: 24-hour intragastric pH on repeated co-administration with amoxicillin/clarithromycin; assay type: in vivo, human
Text: To identify an effect of eradicating Helicobacter pylori in the present invention, a clinical study was designed in accordance with a randomized, open-label, active-controlled, parallel and multiple-dose design. A total of 221 patients were subjected to screening for this study. Out of them, 36 patients were registered thereto and the completed clinical results were obtained from 34 patients.
Particularly, the 36 patients above were divided into three patient groups (T1, T2 and R) and the clinical study was performed accordingly. […]
The T1 group was repeatedly given 50 mg of CJ-12420 and 1000 mg of amoxicillin/500 mg of clarithromycin twice a day for seven days; the T2 group was repeatedly given 100 mg of CJ-12420 and 1000 mg of amoxicillin/500 mg of clarithromycin twice a day for seven days; and the R group was repeatedly given 40 mg of pantoprazole and 1000 mg of amoxicillin/500 mg of clarithromycin twice a day for seven days. An intragastric pH was measured from all the subjects on Day 1 for 24 hours, and the intragastric pH was also measured for 24 hours on Day 1 and Day 7 of repeated administration. Also, a negative conversion rate was calculated upon a follow-up visit paid by subjects who were identified to be H. pylori positive on the UBT test during screening, and stability evaluation was performed according to a predetermined schedule. […]

[3] = tegoprazan 100 mg twice a day, with amoxicillin 1000 mg/clarithromycin 500 mg versus alone

Row | SMILES | change of AUC on administering the three formulations in combination (in words) [1] | change of Cmax on administering the three formulations in combination (in words) [1] | speed of intragastric pH increase (to 6 or more) right after the administration [2] | increase of AUC when administered in combination with amoxicillin/clarithromycin [1, 3] [times] | increase of Cmax when administered in combination with amoxicillin/clarithromycin [1, 3] [times]
1 | CC[C@H]1OC(=O)[C@H](C)[C@@H](O[C@H]2C[C@@](C)(OC)[C@@H](O)[C@H](C)O2)[C@H](C)[C@@H](O[C@@H]2O[C@H](C)C[C@H](N(C)C)[C@H]2O)[C@](C)(OC)C[C@@H](C)C(=O)[C@H](C)[C@@H](O)[C@]1(C)O [clarithromycin, (3R,4S,5S,6R,7R,9R,11R,12R,13S,14R)-6-[(2S,3R,4S,6R)-4-(dimethylamino)-3-hydroxy-6-methyloxane-2-yl]oxy-14-ethyl-12,13-dihydroxy-4-[(2R,4R,5S,6S)-5-hydroxy-4-methoxy-4,6-dimethyloxane-2-yl]oxy-7-methoxy-3,5,7,9,11,13-hexamethyl-oxacyclotetradecane-2,10-dione, reference compound] | tendency to increase; also recorded: increased | tendency to increase; also recorded: increased |  |  | 
2 | Cc1nc2c(OC3CCOc4cc(F)cc(F)c43)cc(C(=O)N(C)C)cc2[nH]1 (stereo not shown) [Tegoprazan, 4-[(5,7-difluoro-3,4-dihydro-2H-chromene-4-yl)oxy]-N,N,2-trimethyl-1H-benzimidazole-6-carboxamide] | increased | increased | two hours or less | 2.70 | 2.24

— patent publication US20210196685A1, “COMPOSITION FOR ERADICATING HELICOBACTER PYLORI” (HK INNO.N CORPORATION, priority 2018, published 2021)
